GI50 and TGI data for five molecules are collected here from PubChem BioAssay (NCI).

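Dose response: 5 concentrations. Exposure: 48 h. Format: 96-well plates. Endpoint: linear interpolation; highest concentration if not reached. GI50 = concentration required for 50% inhibition of growth. At the TGI there is no net growth.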

The first assay concerns SK-MEL-2 melanoma. The experiment in a line: DTP human tumour cell line panel, 48 h.
The GI50 is the concentration that inhibits growth by half. The TGI is the concentration giving total growth inhibition. A high value points to less potent growth arrest. As for `O=c1cc(-c2ccccc2)[nH]c2ccccc12`, the GI50 was more than 100 µM and the TGI is more than 100 µM.

For `COc1cc2c(c(OC)c1)C1c3ccccc3NC(=O)N1CC2` (configuration not stated), the GI50 was 2.85 µM and the TGI came out at 91.4 µM.

Take `CC(CCC(=O)O)[C@H]1CCC2[C@@H]3CC[C@@H]4CC(O)CC[C@]4(C)C3CC[C@@]21C` (some centres not stated): the GI50 is 28.5 µM and the TGI came out at 87.1 µM.

Take `Cc1ccc(NC(=O)C(=O)C(C#N)c2ccccc2C)cc1C` (configuration not stated): the total growth inhibition concentration (TGI) is more than 100 µM.

For `O=C1c2cccnc2C(=O)c2nc3cc(N4CCN(C5CC5)CC4)ccc3nc21`, the GI50 is 1.61 µM and the TGI is 4.22 µM.

A further assay deals with HT29 colon. The experiment in a line: DTP human tumour cell line panel, 48 h.
With `O=c1cc(-c2ccccc2)[nH]c2ccccc12`, the GI50 is 0.39 µM and the TGI was more than 34.8 µM.

For `COc1cc2c(c(OC)c1)C1c3ccccc3NC(=O)N1CC2` (configuration not stated), the GI50 was 3.37 µM and the TGI is more than 100 µM.

On to `CC(CCC(=O)O)[C@H]1CCC2[C@@H]3CC[C@@H]4CC(O)CC[C@]4(C)C3CC[C@@]21C` (some centres not stated), for which the GI50 is 46.1 µM and the total growth inhibition concentration (TGI) is more than 100 µM.

`Cc1ccc(NC(=O)C(=O)C(C#N)c2ccccc2C)cc1C` (configuration not stated) showed a TGI of more than 100 µM.

Turning to `O=C1c2cccnc2C(=O)c2nc3cc(N4CCN(C5CC5)CC4)ccc3nc21`, the GI50 was 0.658 µM and the TGI worked out at 4.96 µM.

The next assay concerns SK-MEL-28 melanoma. The experiment in a line: DTP human tumour cell line panel, 48 h.
Molecule `O=c1cc(-c2ccccc2)[nH]c2ccccc12` had a TGI of more than 100 µM.

`COc1cc2c(c(OC)c1)C1c3ccccc3NC(=O)N1CC2` (configuration not stated): the GI50 was 9.41 µM and the concentration for total growth inhibition (TGI) was found to be 28.5 µM.

For the molecule `CC(CCC(=O)O)[C@H]1CCC2[C@@H]3CC[C@@H]4CC(O)CC[C@]4(C)C3CC[C@@]21C` (some centres not stated), the GI50 is 54.4 µM and the TGI was more than 100 µM.

Turning to `Cc1ccc(NC(=O)C(=O)C(C#N)c2ccccc2C)cc1C` (configuration not stated), the TGI is more than 100 µM.

In the case of `O=C1c2cccnc2C(=O)c2nc3cc(N4CCN(C5CC5)CC4)ccc3nc21`, the GI50 was 0.567 µM and the total growth inhibition concentration (TGI) stood at 1.98 µM.

A further assay concerns IGROV1 ovarian. Nature of the assay: DTP human tumour cell line panel, 48 h.
For the molecule `O=c1cc(-c2ccccc2)[nH]c2ccccc12`, the GI50 is 2.35 µM and the TGI was more than 33.7 µM.

For `COc1cc2c(c(OC)c1)C1c3ccccc3NC(=O)N1CC2` (configuration not stated), the GI50 was 7.71 µM and the TGI is more than 100 µM.

As to `CC(CCC(=O)O)[C@H]1CCC2[C@@H]3CC[C@@H]4CC(O)CC[C@]4(C)C3CC[C@@]21C` (some centres not stated), the GI50 is 40.7 µM and the TGI is more than 100 µM.

On to `Cc1ccc(NC(=O)C(=O)C(C#N)c2ccccc2C)cc1C` (configuration not stated), for which the TGI is more than 100 µM.

For `O=C1c2cccnc2C(=O)c2nc3cc(N4CCN(C5CC5)CC4)ccc3nc21`, the GI50 was 0.808 µM and the TGI came out at 3.01 µM.

The subject of the next assay is SR leukemia. Nature of the assay: DTP human tumour cell line panel, 48 h.
Molecule `O=c1cc(-c2ccccc2)[nH]c2ccccc12` gave a total growth inhibition concentration (TGI) of more than 100 µM.

Consider `COc1cc2c(c(OC)c1)C1c3ccccc3NC(=O)N1CC2` (configuration not stated), for which the GI50 is 2.77 µM and the TGI was more than 100 µM.

Regarding `CC(CCC(=O)O)[C@H]1CCC2[C@@H]3CC[C@@H]4CC(O)CC[C@]4(C)C3CC[C@@]21C` (some centres not stated), the GI50 is 23.4 µM and the TGI came to 85.4 µM.

`Cc1ccc(NC(=O)C(=O)C(C#N)c2ccccc2C)cc1C` (configuration not stated) returned a TGI of more than 100 µM.

On to `O=C1c2cccnc2C(=O)c2nc3cc(N4CCN(C5CC5)CC4)ccc3nc21`, for which the GI50 was 0.322 µM and the TGI was more than 20.1 µM.

Another assay deals with M14 melanoma. Nature of the assay: DTP human tumour cell line panel, 48 h.
As for `O=c1cc(-c2ccccc2)[nH]c2ccccc12`, the GI50 was 0.941 µM and the TGI is more than 100 µM.

For the molecule `COc1cc2c(c(OC)c1)C1c3ccccc3NC(=O)N1CC2` (configuration not stated), the GI50 was 1.97 µM and the TGI was determined as 21.4 µM.

Take `CC(CCC(=O)O)[C@H]1CCC2[C@@H]3CC[C@@H]4CC(O)CC[C@]4(C)C3CC[C@@]21C` (some centres not stated): the GI50 was 30.4 µM and the TGI was 97.8 µM.

With `Cc1ccc(NC(=O)C(=O)C(C#N)c2ccccc2C)cc1C` (configuration not stated), the TGI is more than 100 µM.

For `O=C1c2cccnc2C(=O)c2nc3cc(N4CCN(C5CC5)CC4)ccc3nc21`, the GI50 was 0.301 µM and the TGI turned out to be 1.18 µM.

The next assay has as its system NCI-H23 lung. Nature of the assay: DTP human tumour cell line panel, 48 h.
Consider `O=c1cc(-c2ccccc2)[nH]c2ccccc12`, for which the GI50 was 1.16 µM and the TGI is more than 100 µM.

Turning to `COc1cc2c(c(OC)c1)C1c3ccccc3NC(=O)N1CC2` (configuration not stated), the GI50 was 3.69 µM and the TGI is more than 100 µM.

As for `CC(CCC(=O)O)[C@H]1CCC2[C@@H]3CC[C@@H]4CC(O)CC[C@]4(C)C3CC[C@@]21C` (some centres not stated), the GI50 was 15.6 µM and the total growth inhibition concentration (TGI) is 37.9 µM.

Take `Cc1ccc(NC(=O)C(=O)C(C#N)c2ccccc2C)cc1C` (configuration not stated): the TGI was more than 100 µM.

In the case of `O=C1c2cccnc2C(=O)c2nc3cc(N4CCN(C5CC5)CC4)ccc3nc21`, the GI50 is 0.229 µM and the TGI amounted to 0.85 µM.

The subject of another assay is HCT-15 colon. The experiment in a line: DTP human tumour cell line panel, 48 h.
Take `O=c1cc(-c2ccccc2)[nH]c2ccccc12`: the GI50 is 0.481 µM and the TGI is more than 100 µM.

Regarding `COc1cc2c(c(OC)c1)C1c3ccccc3NC(=O)N1CC2` (configuration not stated), the GI50 is 3.14 µM and the TGI is more than 100 µM.

`CC(CCC(=O)O)[C@H]1CCC2[C@@H]3CC[C@@H]4CC(O)CC[C@]4(C)C3CC[C@@]21C` (some centres not stated): the GI50 is 46.4 µM and the TGI was more than 100 µM.

In the case of `Cc1ccc(NC(=O)C(=O)C(C#N)c2ccccc2C)cc1C` (configuration not stated), the TGI is more than 62 µM.

On to `O=C1c2cccnc2C(=O)c2nc3cc(N4CCN(C5CC5)CC4)ccc3nc21`, for which the GI50 is 0.257 µM and the TGI was found to be 1.28 µM.

Another assay concerns TK-10 renal. Nature of the assay: DTP human tumour cell line panel, 48 h.
`O=c1cc(-c2ccccc2)[nH]c2ccccc12` registered a TGI of more than 100 µM.

On to `COc1cc2c(c(OC)c1)C1c3ccccc3NC(=O)N1CC2` (configuration not stated), for which the GI50 was 8.98 µM and the TGI was more than 100 µM.

Take `CC(CCC(=O)O)[C@H]1CCC2[C@@H]3CC[C@@H]4CC(O)CC[C@]4(C)C3CC[C@@]21C` (some centres not stated): the GI50 is 42.2 µM and the total growth inhibition concentration (TGI) is more than 100 µM.

In turn, `Cc1ccc(NC(=O)C(=O)C(C#N)c2ccccc2C)cc1C` (configuration not stated) yielded a concentration for total growth inhibition (TGI) of more than 100 µM.

`O=C1c2cccnc2C(=O)c2nc3cc(N4CCN(C5CC5)CC4)ccc3nc21`: the GI50 was 2.19 µM and the TGI was determined as 7.81 µM.

For another assay, the system named is A549 NSCLC. Nature of the assay: DTP human tumour cell line panel, 48 h.
For `O=c1cc(-c2ccccc2)[nH]c2ccccc12`, the GI50 is 1.88 µM and the TGI is more than 100 µM.

With `COc1cc2c(c(OC)c1)C1c3ccccc3NC(=O)N1CC2` (configuration not stated), the GI50 is 4.59 µM and the TGI is more than 100 µM.

For the molecule `CC(CCC(=O)O)[C@H]1CCC2[C@@H]3CC[C@@H]4CC(O)CC[C@]4(C)C3CC[C@@]21C` (some centres not stated), the GI50 is 25.3 µM and the TGI is more than 100 µM.

`Cc1ccc(NC(=O)C(=O)C(C#N)c2ccccc2C)cc1C` (configuration not stated) had a TGI of more than 100 µM.

`O=C1c2cccnc2C(=O)c2nc3cc(N4CCN(C5CC5)CC4)ccc3nc21`: the GI50 was 0.213 µM and the TGI worked out at 0.669 µM.
